In patent publication US6914045B2, “Glycopeptide antibiotics” (Wyeth Holdings Corporation, priority 2001, dated 2005):
≈ marks a conversion by molar mass, not a printed value.

What was measured:
Assay in all cases: in vitro antibacterial evaluation, MIC by broth dilution
Type in all cases: cell-based
Escherichia coli = conditions: 18 hours at 35° C.
Staphylococcus sp. = conditions: broth dilution, 18 hours at 35° C.
Description: (§1) Methods for in vitro Antibacterial Evaluation (Table 1)
(§2) The minimum inhibitory concentration (MIC), the lowest concentration of the antibiotic which inhibits growth of the test organism, is determined by the broth dilution method using Muller-Hinton II […] (Baltimore Biological Laboratories) following the recommendations of the National Committee for Clinical Laboratory Standards [Methods for dilution antimicrobial susceptibility tests for bacteria that grow aerobically, approved standard M7-A2, National Committee for Clinical Laboratory Standards, Villanova, Pa.].
(§3) An inoculum level of 5×10^5 CFU/mL, and a range of antibiotic concentrations (64-0.06 μg/mL) is used. […] The test organisms include a spectrum of Gram-positive bacteria comprised of Staphylococcus sp., Streptococcus sp. and Enterococcus sp. These organisms include recent clinical isolates that are resistant to methicillin, penicillin and/or vancomycin.

Enterococcus sp. = conditions: broth dilution, 18 hours at 35° C.
Description: as §1, §2, §3

Streptococcus sp. = conditions: broth dilution, 18 hours at 35° C.
Description: as §1, §2, §3

## CC(c1ccccc1)C1NC(=O)CNC(=O)C(CO)NC(=O)C(C(O)C2CNC(=N)N2C2OC(CO)C(O)C(O)C2O)NC(=O)C(C(O)C2CNC(=N)N2)NC(=O)C(Cc2ccc(OC3OC(CO)C(OC4OC5COC6(CCSCC6)OC5C(O)C4O)C(O)C3O)cc2)NC1=O (stereo not drawn) [Example 217]
Escherichia coli
  MIC Escherichia coli (ATCC 25922): 64 µg/mL (≈ 45.9 µM)
  MIC Escherichia coli (GC 4559): 32 µg/mL (≈ 23 µM)
  MIC Escherichia coli (GC 4560): 2 µg/mL (≈ 1.44 µM)
Staphylococcus sp.; strain ATCC 29213
  MIC Staphylococcus aureus (ATCC 29213): 4 µg/mL (≈ 2.87 µM)
Staphylococcus sp.; strain GC 1131
  MIC Staphylococcus aureus (GC 1131): 4 µg/mL (≈ 2.87 µM)
Staphylococcus sp.; strain GC 3051
  MIC Staphylococcus aureus (GC 3051): 4 µg/mL (≈ 2.87 µM)
Staphylococcus sp.; strain GC 3053
  MIC Staphylococcus aureus (GC 3053): 8 µg/mL (≈ 5.74 µM)
Staphylococcus sp.; strain GC 4541
  MIC Staphylococcus aureus (GC 4541): 4 µg/mL (≈ 2.87 µM)
Staphylococcus sp.; strain GC 4542
  MIC Staphylococcus aureus (GC 4542): 4 µg/mL (≈ 2.87 µM)
Staphylococcus sp.; strain GC 4543
  MIC Staphylococcus aureus-SMITH (GC 4543): 2 µg/mL (≈ 1.44 µM)
Staphylococcus sp.; strain GC 4544
  MIC Staphylococcus aureus (GC 4544): 8 µg/mL (≈ 5.74 µM)
Staphylococcus sp.; strain GC 4545
  MIC Staphylococcus aureus (GC 4545): 4 µg/mL (≈ 2.87 µM)
Staphylococcus sp.; strain GC 4546
  MIC Staphylococcus haemolyticus (GC 4546): 2 µg/mL (≈ 1.44 µM)
Staphylococcus sp.; strain GC 4547
  MIC Coagulase Negative Staphylococcus (GC 4547): 4 µg/mL (≈ 2.87 µM)
Staphylococcus sp.; strain GC 4548
  MIC Coagulase Negative Staphylococcus (GC 4548): 1 µg/mL (≈ 0.718 µM)
Staphylococcus sp.; strain GC 4549
  MIC Coagulase Negative Staphylococcus (GC 4549): 2 µg/mL (≈ 1.44 µM)
Staphylococcus sp.; strain GC 4551
  MIC Coagulase Negative Staphylococcus (GC 4551): 8 µg/mL (≈ 5.74 µM)
Enterococcus sp.
  MIC Enterococcus avium (GC 4558): 16 µg/mL (≈ 11.5 µM)
  MIC Enterococcus faecalis (ATCC 29212): 16 µg/mL (≈ 11.5 µM)
  MIC Enterococcus faecalis (GC 2242): 16 µg/mL (≈ 11.5 µM)
  MIC Enterococcus faecalis (GC 2691): 16 µg/mL (≈ 11.5 µM)
  MIC Enterococcus faecalis (GC 3059): 32 µg/mL (≈ 23 µM)
  MIC Enterococcus faecalis (GC 4552): 16 µg/mL (≈ 11.5 µM)
  MIC Enterococcus faecalis (GC 4553): 32 µg/mL (≈ 23 µM)
  MIC Enterococcus faecalis (GC 4554): 32 µg/mL (≈ 23 µM)
  MIC Enterococcus faecalis (GC 6189): 16 µg/mL (≈ 11.5 µM)
  MIC Enterococcus faecium (GC 2243): 16 µg/mL (≈ 11.5 µM)
  MIC Enterococcus faecium (GC 4556): 16 µg/mL (≈ 11.5 µM)
  MIC Enterococcus faecium (GC 4557): 8 µg/mL (≈ 5.74 µM)
Enterococcus sp.; inoculum 5×10^5 CFU/mL, strain ATCC 29212
  MIC Enterococcus faecalis (ATCC 29212): 16 µg/mL (≈ 11.5 µM)
Enterococcus sp.; inoculum 5×10^5 CFU/mL, strain GC 2242
  MIC Enterococcus faecalis (GC 2242): 16 µg/mL (≈ 11.5 µM)
Enterococcus sp.; inoculum 5×10^5 CFU/mL, strain GC 2243
  MIC Enterococcus faecium (GC 2243): 16 µg/mL (≈ 11.5 µM)
Enterococcus sp.; inoculum 5×10^5 CFU/mL, strain GC 2691
  MIC Enterococcus faecalis (GC 2691): 16 µg/mL (≈ 11.5 µM)
Enterococcus sp.; inoculum 5×10^5 CFU/mL, strain GC 3059
  MIC Enterococcus faecalis (GC 3059): 32 µg/mL (≈ 23 µM)
Enterococcus sp.; inoculum 5×10^5 CFU/mL, strain GC 4552
  MIC Enterococcus faecalis (GC 4552): 16 µg/mL (≈ 11.5 µM)
Enterococcus sp.; inoculum 5×10^5 CFU/mL, strain GC 4553
  MIC Enterococcus faecalis (GC 4553): 32 µg/mL (≈ 23 µM)
Enterococcus sp.; inoculum 5×10^5 CFU/mL, strain GC 4554
  MIC Enterococcus faecalis (GC 4554): 32 µg/mL (≈ 23 µM)
Enterococcus sp.; inoculum 5×10^5 CFU/mL, strain GC 4556
  MIC Enterococcus faecium (GC 4556): 16 µg/mL (≈ 11.5 µM)
Enterococcus sp.; inoculum 5×10^5 CFU/mL, strain GC 4557
  MIC Enterococcus faecium (GC 4557): 8 µg/mL (≈ 5.74 µM)
Enterococcus sp.; inoculum 5×10^5 CFU/mL, strain GC 4558
  MIC Enterococcus avium (GC 4558): 16 µg/mL (≈ 11.5 µM)
Enterococcus sp.; inoculum 5×10^5 CFU/mL, strain GC 6189
  MIC Enterococcus faecalis (GC 6189): 16 µg/mL (≈ 11.5 µM)
Streptococcus sp.
  MIC Streptococcus agalactiae (GC 4564): 2 µg/mL (≈ 1.44 µM)
  MIC Streptococcus pneumoniae (ATCC 6301): 1 µg/mL (≈ 0.718 µM)
  MIC Streptococcus pneumoniae (GC 1894): 0.25 µg/mL (≈ 0.179 µM)
  MIC Streptococcus pneumoniae (GC 4565): 0.5 µg/mL (≈ 0.359 µM)
  MIC Streptococcus pyogenes (GC 4563): 1 µg/mL (≈ 0.718 µM)
Streptococcus sp.; inoculum 5×10^5 CFU/mL, strain ATCC 6301
  MIC Streptococcus pneumoniae (ATCC 6301): 1 µg/mL (≈ 0.718 µM)
Streptococcus sp.; inoculum 5×10^5 CFU/mL, strain GC 1894
  MIC Streptococcus pneumoniae (GC 1894): 0.25 µg/mL (≈ 0.179 µM)
Streptococcus sp.; inoculum 5×10^5 CFU/mL, strain GC 4563
  MIC Streptococcus pyogenes (GC 4563): 1 µg/mL (≈ 0.718 µM)
Streptococcus sp.; inoculum 5×10^5 CFU/mL, strain GC 4564
  MIC Streptococcus agalactiae (GC 4564): 2 µg/mL (≈ 1.44 µM)
Streptococcus sp.; inoculum 5×10^5 CFU/mL, strain GC 4565
  MIC Streptococcus pneumoniae (GC 4565): 0.5 µg/mL (≈ 0.359 µM)
